According to patent US20090176839A1, “FORMULATIONS OF 3-(6-(1-(2,2-DIFLUOROBENZO[D][1,3]DIOXOL-5-YL) CYCLOPROPANECARBOXAMIDO)-3-METHYLPYRIDIN-2-YL)BENZOIC ACID” (priority 2007, published 2009):
Where two headings read alike, the source gives them in different places.

Assays:
[1] = in vivo; design: species or system rats; details: rat
Procedure: (§1) The animals were dosed orally with the vehicle (0.5% methylcellulose in water), or 15, 75, or 150 mg/kg Compound 1 twice daily for 7 consecutive days. The two daily doses were administered approximately 10 hours apart and the dose volume was 5 mL/kg/b.i.d. for all dose groups. At the end of the dosing period, all animals were euthanized and necropsied. Satellite animals (6/sex/Groups 2-4) were dosed in the same manner as the toxicity animals and plasma samples were collected on Days 1 and 7 for toxicokinetic (TK) analysis. Parameters evaluated during the study were: viability, clinical observations, body weights, feed consumption, clinical pathology (termination), organ weights, macroscopic observations and microscopic pathology.

[2] = test system: rats; experiment: in vivo; details: rat
Procedure: as §1

[3] = Toxicokinetics in 14-day oral toxicity study in rats; details: rat, in vivo, 600 mg/kg/day
Excerpt: (§2) There were no major differences noted in TK parameters between males and females, or when comparing study Day 1 to study Day 14.

[4] = Toxicokinetics in 7-day dose range finding study in dogs; type: in vivo; details: 100 mg/kg/day; for Cmax: dog, plasma, oral
Procedure: One dog per gender was dosed orally with the vehicle (0.5% methylcellulose+0.5% Tween80 in water), or 25, 50, or 100 mg/kg/day Compound 1 for 7 consecutive days. The dose volume was 5 mL/kg/day for all dose groups. Plasma samples were collected on Days 1 and 7 for TK analysis and viability, clinical observations, body weights, feed consumption, clinical pathology (termination), organ weights, macroscopic observations, and microscopic pathology were evaluated.
The plasma AUC0-24 data on Day 1 was consistent with previously conducted single dose studies of Compound 1 in the dog.

[5] = Toxicokinetics in 14-day oral toxicity study in dogs; details: dog, in vivo, 200 mg/kg/day
Excerpt: as §2

[6] = Oral pharmacokinetics of Compound 1 in fed or fasted male dogs at 10 mg/kg; type: in vivo, male beagle dogs; details: for concentration at 48 hr: oral, read-out: Clast
Procedure: Non-validated research grade assays were used for these analyses. All pharmacokinetic studies were conducted using fed animals unless otherwise specified.
The oral pharmacokinetics of Compound 1 were determined under fed and fasted conditions in male beagle dogs following a single 10 mg/kg administration (Table 6). […] The tmax occurred sooner after administration in the fasted state (1.5 hours) than in the fed state (2.7 hours). The variability of the systemic exposure of Compound 1 was higher under fed conditions (CV of 67% for AUC0-INF) than under fasted conditions (CV of 27% for AUC0-INF), possibly due to changes in stomach emptying time under fed conditions.

[7] = Solubility (statement); type: physicochemical; details: aqueous medium
[8] = test system: dogs; details: dog, in vivo
Procedure: (§3) Repeat-dose oral toxicity studies of 7- and 14-days duration have been conducted in rats (up to 600 mg/kg/day) and dogs (up to 200 mg/kg/day).

[9] = male, beagle, dog, in vivo, 200 mg/kg
[10] = in vivo; details: rat, po
Procedure: as §3

[11] = in vivo; details: dog, po
Procedure: as §3

[12] = male, beagle, dog, plasma, po, 10 mg/kg, male dogs, Fasted
[13] = male, beagle, dog, plasma, po, 10 mg/kg, male dogs, Fed

Q: Which NOAEL at 7 days [1] does the source give for `Cc1ccc(NC(=O)C2(c3ccc4c(c3)OC(F)(F)O4)CC2)nc1-c1cccc(C(=O)O)c1` [Compound 1, 3-(6-(1-(2,2-difluorobenzo[d][1,3]dioxol-5-yl)cyclopropanecarboxamido)-3-methylpyridin-2-yl)benzoic acid] here?
A: Its NOAEL at 7 days is 300 mg/kg/day.

Q: What about the “gross lesions and histopathological findings” value [2] of the same compound?
A: The value was “no test article related gross lesions or histopathological findings”.

Q: And the adrenal gland weights ([2]; 300 mg/kg/day)?
A: Its adrenal gland weights is “higher adrenal gland weights”.

Q: And the body weight ([2]; 300 mg/kg/day)?
A: The body weight was “minor effects on body weight”.

Q: What about the serum potassium ([2]; 300 mg/kg/day) of the same compound?
A: The serum potassium was “lower serum potassium”.

Q: And the “urinary pH” value ([2]; 300 mg/kg/day)?
A: Its value is “slight increase in urinary pH”.

Q: What about the AUC(0-t) ([3]; both sexes, rats, at the NOAEL (600 mg/kg/day), read-out: average AUC0-24hr) of the same compound?
A: The AUC(0-t) was 3950 µg·h/mL.

Q: And the Cmax ([3]; both sexes, rats, at the NOAEL (600 mg/kg/day), read-out: average Cmax)?
A: Its Cmax is 222 µg/mL.

Q: What about the Tmax ([3]; female, Sprague Dawley, Study Day 1, Female) of the same compound?
A: Its Tmax is 4 h.

Q: What about the AUC(0-t) ([3]; female, Sprague Dawley, Study Day 1, Female, read-out: AUC0-24 hr) of the same compound?
A: The AUC(0-t) was 4430 µg·h/mL.

Q: What about the Cmax ([3]; female, Sprague Dawley, Study Day 1, Female, read-out: Cmax) of the same compound?
A: The Cmax was 273 µg/mL.

Q: And the Tmax ([3]; female, Sprague Dawley, Study Day 14, Female)?
A: The Tmax was 10 h.

Q: And the AUC(0-t) ([3]; female, Sprague Dawley, Study Day 14, Female, read-out: AUC0-24 hr)?
A: Its AUC(0-t) is 5500 µg·h/mL.

Q: What about the Cmax ([3]; female, Sprague Dawley, Study Day 14, Female, read-out: Cmax) of the same compound?
A: The Cmax was 272 µg/mL.

Q: What about the Tmax ([3]; male, Sprague Dawley, Study Day 1, Male) of the same compound?
A: The Tmax was 10 h.

Q: And the AUC(0-t) ([3]; male, Sprague Dawley, Study Day 1, Male, read-out: AUC0-24 hr)?
A: Its AUC(0-t) is 2660 µg·h/mL.

Q: And the Cmax ([3]; male, Sprague Dawley, Study Day 1, Male, read-out: Cmax)?
A: The Cmax was 164 µg/mL.

Q: What about the Tmax ([3]; male, Sprague Dawley, Study Day 14, Male) of the same compound?
A: Its Tmax is 10 h.

Q: And the AUC(0-t) ([3]; male, Sprague Dawley, Study Day 14, Male, read-out: AUC0-24 hr)?
A: The AUC(0-t) was 3220 µg·h/mL.

Q: What about the Cmax ([3]; male, Sprague Dawley, Study Day 14, Male, read-out: Cmax) of the same compound?
A: The Cmax was 181 µg/mL.

Q: What about the average plasma concentrations ([4]; female) of the same compound?
A: Its average plasma concentrations is 38 µM.

Q: What about the average plasma concentrations ([4]; male) of the same compound?
A: Its average plasma concentrations is 16 µM.

Q: And the Cmax ([4]; female)?
A: The Cmax was about 130 µM.

Q: And the Cmax ([4]; male)?
A: The Cmax was about 110 µM.

Q: What about the AUC(0-t) ([5]; both sexes, dogs, at the NOAEL (200 mg/kg/day), read-out: average AUC0-24hr) of the same compound?
A: Its AUC(0-t) is 645 µg·h/mL.

Q: And the Cmax ([5]; both sexes, dogs, at the NOAEL (200 mg/kg/day), read-out: average Cmax)?
A: The Cmax was 75 µg/mL.

Q: What about the Tmax ([5]; female, beagle, Study Day 1, Female) of the same compound?
A: The Tmax was 4 h.

Q: And the AUC(0-t) ([5]; female, beagle, Study Day 1, Female, read-out: AUC0-24 hr)?
A: The AUC(0-t) was 573 µg·h/mL.

Q: And the Cmax ([5]; female, beagle, Study Day 1, Female, read-out: Cmax)?
A: The Cmax was 56 µg/mL.

Q: And the Tmax ([5]; female, beagle, Study Day 14, Female)?
A: Its Tmax is 3 h.

Q: What about the AUC(0-t) ([5]; female, beagle, Study Day 14, Female, read-out: AUC0-24 hr) of the same compound?
A: The AUC(0-t) was 720 µg·h/mL.

Q: What about the Cmax ([5]; female, beagle, Study Day 14, Female, read-out: Cmax) of the same compound?
A: Its Cmax is 77 µg/mL.

Q: And the Tmax ([5]; male, beagle, Study Day 1, Male)?
A: Its Tmax is 3 h.

Q: What about the AUC(0-t) ([5]; male, beagle, Study Day 1, Male, read-out: AUC0-24 hr) of the same compound?
A: The AUC(0-t) was 691 µg·h/mL.

Q: And the Cmax ([5]; male, beagle, Study Day 1, Male, read-out: Cmax)?
A: The Cmax was 77 µg/mL.

Q: What about the Tmax ([5]; male, beagle, Study Day 14, Male) of the same compound?
A: The Tmax was 3 h.

Q: And the AUC(0-t) ([5]; male, beagle, Study Day 14, Male, read-out: AUC0-24 hr)?
A: Its AUC(0-t) is 598 µg·h/mL.

Q: What about the Cmax ([5]; male, beagle, Study Day 14, Male, read-out: Cmax) of the same compound?
A: Its Cmax is 72 µg/mL.

Q: And the clearance ([6]; dog)?
A: Its clearance is “very low clearance”.

Q: And the F ([6]; male dogs, 10 mg/kg, Fasted)?
A: The F was 53%.

Q: What about the tlast ([6]; male dogs, 10 mg/kg, Fasted) of the same compound?
A: The tlast was 48 h.

Q: And the F ([6]; male dogs, 10 mg/kg, Fed)?
A: Its F is 53%.

Q: What about the tlast ([6]; male dogs, 10 mg/kg, Fed) of the same compound?
A: The tlast was 48 h.

Q: What about the concentration at 48 hr ([6]; male, beagle, dog, plasma, 10 mg/kg, male dogs, 10 mg/kg, Fasted) of the same compound?
A: The concentration at 48 hr was 0.066 µg/mL.

Q: What about the concentration at 48 hr ([6]; male, beagle, dog, plasma, 10 mg/kg, male dogs, 10 mg/kg, Fed) of the same compound?
A: The concentration at 48 hr was 0.047 µg/mL.

Q: What about the half-life ([6]; male, beagle, dog, plasma, po, 10 mg/kg, male dogs, 10 mg/kg, Fasted, read-out: t1/2 (converted)) of the same compound?
A: The half-life was 6.3 h.

Q: What about the half-life ([6]; male, beagle, dog, plasma, po, 10 mg/kg, male dogs, 10 mg/kg, Fed, read-out: t1/2 (converted)) of the same compound?
A: The half-life was 6.6 h.

Q: And the AUC(0-inf) [6, 12]?
A: Its AUC(0-inf) is 35.8 µg·h/mL.

Q: What about the Cmax [6, 12] of the same compound?
A: Its Cmax is 7.9 µg/mL.

Q: What about the Tmax [6, 12] of the same compound?
A: Its Tmax is 1.5 h.

Q: And the AUC(0-inf) [6, 13]?
A: The AUC(0-inf) was 35.7 µg·h/mL.

Q: And the Cmax [6, 13]?
A: Its Cmax is 4.1 µg/mL.

Q: What about the Tmax [6, 13] of the same compound?
A: Its Tmax is 2.7 h.

Q: What about the half-life ([6]; male, beagle, dog, plasma, po, administered orally to dogs, read-out: half-life) of the same compound?
A: Its half-life is 5 to 9 h.

Q: And the bioavailability ([6]; male, beagle, plasma, po, dog, 10 mg/kg orally in a methylcellulose suspension)?
A: The bioavailability was 53%.

Q: And the solubility [7]?
A: The solubility was “low solubility”.

Q: What about the “ECG tracings and opthalmology examinations” value [8] of the same compound?
A: The value was “within normal limits”.

Q: What about the “RBC parameters, decreases” value [8] of the same compound?
A: Its value is 7-14%.

Q: What about the “total cholesterol, decreases” value [8] of the same compound?
A: The value was 21-29%.

Q: What about the “triglycerides, decreases” value [8] of the same compound?
A: Its value is 44-46%.

Q: What about the light microscopy findings ([8]; 14 days) of the same compound?
A: Its light microscopy findings is “no significant Compound 1 related findings”.

Q: And the “dosage tolerated without toxic effect” value ([8]; po, 14 days)?
A: The value was “up to 200 mg/kg/day”.

Q: And the F [9]?
A: The F was 20%.

Q: What about the tlast [9] of the same compound?
A: Its tlast is 48 h.

Q: And the NOAEL at 14 days [10]?
A: Its NOAEL at 14 days is 600 mg/kg/day.

Q: What about the NOAEL at 14 days [11] of the same compound?
A: Its NOAEL at 14 days is 200 mg/kg/day.
